According to ChEMBL document CHEMBL1201862, “PubChem BioAssay data set” (2004):
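Grown in 96-well plates, cells were treated for 48 hours with each compound at five concentrations. Insufficient inhibition: endpoint recorded as highest concentration tested. At the GI50, growth is halved.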 Active and inactive are the calls of the source. No stated cut-off is given here; in the data, active = GI50 up to about 1.1 µM and inactive = higher. *1 amine or outer side, *2 acyl side, *3 side chain or, on linkers, in order; H or OH if unused. Where a SMILES comes first, the peptide text is derived from it. Bridges are numbered along the chain shown (N, C = ends). [ ]: non-standard residue; d: D form. The star is where a group is joined. X56 = CC(C)C(C)C(C(=O)[*:2])N(C)[*:1]; Picolinoyl(3-OH) = O=C(c1ncccc1O)*; NMePhg = CN[CH](C(=O)O)c1ccccc1; Hyp = O=C(O)[CH]1C[CH](O)CN1; Sar = CNCC(=O)O

Experiments:
Assay in all cases: NCI-60 cell line screen, 48 h
BT-549 = tested on: BT-549
MDA-N = tested on: MDA-N
DLD-1 = tested on: DLD-1
DMS-114 = tested on: DMS-114
HOP-18 = tested on: HOP-18
KM-20L2 = tested on: KM-20L2
LXFL 529 = tested on: LXFL 529
M19-MEL = tested on: M19-MEL

Compound: COC(=O)/C=C/c1cnc2c(c1)oc(=O)n2CCc1ccccn1
- GI50 (BT-549): 42.8 µM (inactive)
- GI50 (MDA-N): 23.8 µM (inactive)

Compound: CCCCCCCC/C=C/CCCCCCCC(=O)N(O)C1CC(n2cc(C)c(=O)[nH]c2=O)OC1CO (stereo unspecified)
- GI50 (DLD-1): 6.4 µM (inactive)
- GI50 (DMS-114): 4.41 µM (inactive)
- GI50 (HOP-18): 3.65 µM (inactive)
- GI50 (KM-20L2): 3.56 µM (inactive)
- GI50 (LXFL 529): 10.6 µM (inactive)
- GI50 (M19-MEL): 5.3 µM (inactive)

Compound: COc1ccc(-c2ccc(CC(=O)O)cc2)cc1OC
- GI50 (DLD-1): > 100 µM (inactive)
- GI50 (DMS-114): > 100 µM (inactive)
- GI50 (KM-20L2): > 100 µM (inactive)
- GI50 (LXFL 529): > 100 µM (inactive)
- GI50 (M19-MEL): > 100 µM (inactive)

Compound: CC(C)CC1NC(=O)C(NC(=O)c2ncccc2O)C(C)OC(=O)C(c2ccccc2)N(C)C(=O)C(C)NC(=O)C(C(C)C(C)C)N(C)C(=O)CN(C)C(=O)C2CC(O)CN2C1=O (stereo unspecified) ({Picolinoyl(3-OH)}-TL[Hyp][Sar][X56]A[NMePhg]; ester 1-C; configuration not given here)
- GI50 (DLD-1): 82.4 µM (inactive)
- GI50 (DMS-114): > 119 µM (inactive)
- GI50 (HOP-18): 83.6 µM (inactive)
- GI50 (KM-20L2): 7.93 µM (inactive)
- GI50 (M19-MEL): 68.2 µM (inactive)

Compound: CCCCC#CS(=O)(=O)C(F)(F)F
- GI50 (DLD-1): > 100 µM (inactive)
- GI50 (DMS-114): 37.2 µM (inactive)
- GI50 (HOP-18): > 100 µM (inactive)
- GI50 (KM-20L2): 81.5 µM (inactive)

Compound: COc1ccc(CCn2cnc3ccccc32)cc1
- GI50 (BT-549): > 100 µM (inactive)
- GI50 (MDA-N): > 100 µM (inactive)

Compound: C(=N\c1ccc(-c2cc(-c3ccccc3)nc3ccc4ccccc4c23)cc1)/c1ccccc1
- GI50 (MDA-N): 24.4 µM (inactive)

Compound: Cc1cc(C)nc(NS(=O)(=O)c2ccc(Nc3c4ccccc4nc4c(C(=O)Nc5ccc(S(=O)(=O)Nc6cc(C)on6)cc5)cccc34)cc2)n1
- GI50 (DLD-1): 28.1 µM (inactive)
- GI50 (DMS-114): 19.1 µM (inactive)
- GI50 (HOP-18): 20.4 µM (inactive)
- GI50 (KM-20L2): 21 µM (inactive)
- GI50 (LXFL 529): 17.9 µM (inactive)
- GI50 (M19-MEL): 23.4 µM (inactive)

Compound: NC(=O)Cc1nc2c(N)ncnc2n1C1OC(CO)C(O)C1O (stereo unspecified)
- GI50 (BT-549): > 100 µM (inactive)
- GI50 (MDA-N): > 100 µM (inactive)

Compound: COC(=O)CCc1ccc2c(c1)[C@H](C(=O)OC)[C@@H](c1ccc(O)cc1)O2
- GI50 (BT-549): 74.5 µM (inactive)
- GI50 (MDA-N): > 100 µM (inactive)

Compound: c1ccc2c(CSCc3cccc4ccccc34)cccc2c1
- GI50 (BT-549): > 100 µM (inactive)
- GI50 (MDA-N): > 100 µM (inactive)

Compound: Cc1ccc2[nH]c3c(C)c4cc[n+](C)cc4c(C)c3c2c1
- GI50 (BT-549): 0.753 µM (active)
- GI50 (DLD-1): 1.67 µM (inactive)
- GI50 (DMS-114): 0.61 µM (active)
- GI50 (HOP-18): 9.66 µM (inactive)
- GI50 (KM-20L2): 3.96 µM (inactive)
- GI50 (LXFL 529): 0.743 µM (active)
- GI50 (MDA-N): 4.03 µM (inactive)

Compound: COc1ccc(C2=NN(C(=O)c3cccnc3)C(O)(c3cc(F)c(Cl)cc3Cl)C2)cc1OC (stereo unspecified)
- GI50 (BT-549): 19.3 µM (inactive)
- GI50 (MDA-N): 21.3 µM (inactive)

Compound: O=C1/C(=C/c2ccc(Cl)cc2)N=C(c2ccccc2)N1/N=C/c1ccccc1O
- GI50 (BT-549): 16.4 µM (inactive)
- GI50 (MDA-N): 69.5 µM (inactive)

Compound: CC1(C)CCCOc2cccc(c2)OCCCC(C)(C)C1=O
- GI50 (BT-549): 29.8 µM (inactive)
- GI50 (MDA-N): 45.2 µM (inactive)

Compound: CCN(CC)Cc1sc2nc3ccccc3n2c1-c1ccc(OC)cc1
- GI50 (BT-549): 32.7 µM (inactive)
- GI50 (MDA-N): 2.61 µM (inactive)

Compound: C/C(=C1\C(=O)C(c2ccccc2)N(c2ccccc2)C1=O)c1ccc(Cl)cc1 (stereo unspecified)
- GI50 (BT-549): 19.8 µM (inactive)
- GI50 (MDA-N): 19.7 µM (inactive)

Compound: COC1/C=C\C=C(/C)C(=O)NC2=CC(=O)C=C(C2=O)C(OC)C(C)CC(OC)C(OC)C(C)/C=C(/C)C1OC(N)=O (stereo unspecified)
- GI50 (DLD-1): 1.59 µM (inactive)
- GI50 (DMS-114): 1.12 µM (inactive)
- GI50 (HOP-18): 0.29 µM (active)
- GI50 (KM-20L2): 3.2 µM (inactive)
- GI50 (M19-MEL): 2.2 µM (inactive)

Compound: CC1(C)OCC(C2OC3OC(C)(C)OC3C2c2ccccc2)O1 (stereo unspecified)
- GI50 (MDA-N): 37 µM (inactive)

Compound: CCCCCCCCCCCCCCCCCCC1=C(O)C(=O)C=C(OC)C1=O
- GI50 (DLD-1): 47.3 µM (inactive)
- GI50 (DMS-114): 21.7 µM (inactive)
- GI50 (HOP-18): 43 µM (inactive)
- GI50 (KM-20L2): 42.9 µM (inactive)
- GI50 (LXFL 529): 29.6 µM (inactive)
- GI50 (M19-MEL): 39.1 µM (inactive)

Compound: Clc1ccc(C(Cc2ccccc2)c2c(Cl)nc(N3CCNCC3)nc2Cl)cc1 (stereo unspecified)
- GI50 (BT-549): 21.3 µM (inactive)

Compound: CN(Cc1cnc2nc(N)nc(N)c2n1)c1ccc(C(=O)NC(CCC(=O)O)C(=O)O)cc1 (stereo unspecified)
- GI50 (BT-549): 4.07 µM (inactive)

Compound: CC(=O)On1c(-c2ccccc2-c2nc3ccccc3n2OC(C)=O)nc2ccccc21
- GI50 (BT-549): 30.3 µM (inactive)
- GI50 (MDA-N): 21 µM (inactive)

Compound: CCCSCC(P(=O)(O)O)P(=O)(O)O.NC1CCCCC1
- GI50 (DLD-1): > 100 µM (inactive)
- GI50 (DMS-114): > 100 µM (inactive)
- GI50 (HOP-18): > 100 µM (inactive)
- GI50 (KM-20L2): > 100 µM (inactive)
- GI50 (M19-MEL): > 100 µM (inactive)

Compound: CN(C)c1ccc(/C=C/C(=O)C(C)(C)C)cc1Br
- GI50 (DLD-1): 18.7 µM (inactive)
- GI50 (DMS-114): 18.5 µM (inactive)
- GI50 (HOP-18): > 100 µM (inactive)
- GI50 (KM-20L2): 25.6 µM (inactive)
- GI50 (LXFL 529): 30 µM (inactive)
- GI50 (M19-MEL): 19.8 µM (inactive)
